# “And” between values parts separate entries of the source, which are not always exact repeats. Equal entries are not always repeated.
# Assays:
# [1] = system: Murine lymphoma cells (E2409, EC+F); test: Killing of murine lymphoma cells, 48 hour assay; assay type: cell-based
# Procedure: All experiments in FIG. 6 were performed using RPMI media (Life Technologies) was used as the base formulation and culture medium also contained 1 mM Sodium Pyruvate, 100 mM HEPES, 2 mM additional L-Glutamine, 55 uM 2-mercaptoethanol, and 1×MEM NEAA Solution (all from Life Technologies). Trypsin was not necessary for these non-adherent cells. Presto Blue reagent (Life Technologies) was used as an endpoint assay using the same procedure described in previously for Alamar Blue, with a 30 minute incubation time.
# [2] = Pharmacokinetic study of Example 1 in mouse (IV, IP, PO); assay type: in vivo, Male C57BL/6 Mouse; conditions: for concentration at 0.25 h / concentration at 0.5 h / concentration at 1 h / concentration at 2 h / concentration at 4 h: male, C57BL/6, mouse, plasma, ip
# Procedure: Species: Male C57BL/6 Mouse, fasted.
# PK/PD testing of the compound was performed in mice, after IP, IV, or oral administration.
# [3] = IP 30 mg/kg, individual mice M4-M6, 30 mg/kg
# [4] = IV 5 mg/kg, individual mice M1-M3, 5 mg/kg
# [5] = PO 30 mg/kg, individual mice M7-M9, 30 mg/kg
compound,measurement,setting,value
"Cc1ccc(Nc2nc(N/N=C/c3c[nH]c4ccccc34)nc(N3CCOCC3)n2)cc1 [Example 1, (E)-4-(2-((1H-indol-3-yl)methylene)hydrazinyl)-6-morpholino-N-(p-tolyl)-1,3,5-triazin-2-amine]",cell killing,[1],killed by relatively low concentrations
same,plasma concentration,"[2]; IP 30 mg/kg, 0.250 h, individual mice M4-M6, 30 mg/kg",0.299 µg/mL and 0.314 µg/mL
same,plasma concentration,"[2]; IP 30 mg/kg, 0.500 h, individual mice M4-M6, 30 mg/kg",0.43 µg/mL and 0.376 µg/mL
same,plasma concentration,"[2]; IP 30 mg/kg, 1.00 h, individual mice M4-M6, 30 mg/kg",0.636 µg/mL and 0.492 µg/mL
same,plasma concentration,"[2]; IP 30 mg/kg, 2.00 h, individual mice M4-M6, 30 mg/kg",0.441 µg/mL and 0.523 µg/mL
same,plasma concentration,"[2]; IP 30 mg/kg, 4.00 h, individual mice M4-M6, 30 mg/kg",0.232 µg/mL and 0.158 µg/mL
same,plasma concentration,"[2]; IP 30 mg/kg, 6.00 h, individual mice M4-M6, 30 mg/kg",0.115 µg/mL and 0.103 µg/mL
same,plasma concentration,"[2]; IP 30 mg/kg, 24.0 h, individual mice M4-M6, 30 mg/kg",0.0341 µg/mL and 0.0407 µg/mL
same,Tlast,"[2]; IP 30 mg/kg, individual mice M4-M6",24.0 h
same,AUC0-last,[2]; [3],3.11 µg·h/mL and 2.925 µg·h/mL
same,AUC(0-inf),[2]; [3],3.512 µg·h/mL and 3.588 µg·h/mL
same,AUCExtra,[2]; [3],18.0% and 11.5% and 18.5%
same,AUMCExtra,[2]; [3],54.7% and 41.4% and 56.7%
same,Cmax,[2]; [3],0.636 µg/mL and 0.523 µg/mL
same,MRT0-inf,[2]; [3],9.91 h and 13.1 h
same,MRT0-last,[2]; [3],6.56 h and 6.98 h
same,T1/2,[2]; [3],8.19 h and 11.3 h
same,Tmax,[2]; [3],2.00 h
same,AUCExtra,"[2]; IP 30 mg/kg, mean",16.0%
same,AUMCExtra,"[2]; IP 30 mg/kg, mean",50.9%
same,Tlast,"[2]; IP 30 mg/kg, mean",24.0 h
same,peak concentration,"[2]; IP, single 30 mg/kg dose",534 ng/mL
same,plasma concentration,"[2]; IV 5 mg/kg, 5 min, individual mice M1-M3, 5 mg/kg",1.5 µg/mL and 2.09 µg/mL
same,plasma concentration,"[2]; IV 5 mg/kg, 0.250 h, individual mice M1-M3, 5 mg/kg",1.27 µg/mL and 1.53 µg/mL
same,plasma concentration,"[2]; IV 5 mg/kg, 0.500 h, individual mice M1-M3, 5 mg/kg",1.06 µg/mL and 1.13 µg/mL
same,plasma concentration,"[2]; IV 5 mg/kg, 1.00 h, individual mice M1-M3, 5 mg/kg",0.591 µg/mL and 0.678 µg/mL
same,plasma concentration,"[2]; IV 5 mg/kg, 2.00 h, individual mice M1-M3, 5 mg/kg",0.169 µg/mL and 0.204 µg/mL
same,plasma concentration,"[2]; IV 5 mg/kg, 4.00 h, individual mice M1-M3, 5 mg/kg",0.0167 µg/mL and 0.0164 µg/mL
same,plasma concentration,"[2]; IV 5 mg/kg, 6.00 h, individual mice M1-M3, 5 mg/kg",0.00404 µg/mL and 0.00344 µg/mL
same,plasma concentration,"[2]; IV 5 mg/kg, 24.0 h, individual mice M1-M3",BQL
same,Tlast,"[2]; IV 5 mg/kg, individual mice M1-M3",6.00 h
same,AUC0-last,[2]; [4],1.539 µg·h/mL and 1.82 µg·h/mL
same,AUC(0-inf),[2]; [4],1.543 µg·h/mL and 1.823 µg·h/mL
same,AUCExtra,[2]; [4],0.381% and 0.251% and 0.171%
same,AUMCExtra,[2]; [4],2.79% and 1.96% and 1.39%
same,C0,[2]; [4],1.63 µg/mL and 2.442 µg/mL
same,Cl,[2]; [4],3.24 L/h/kg and 2.74 L/h/kg
same,MRT0-inf,[2]; [4],0.890 h and 0.847 h
same,MRT0-last,[2]; [4],0.875 h and 0.836 h
same,T1/2,[2]; [4],0.665 h and 0.628 h
same,Vdss,[2]; [4],2.89 L/kg and 2.32 L/kg
same,AUCExtra,"[2]; IV 5 mg/kg, mean",0.268%
same,AUMCExtra,"[2]; IV 5 mg/kg, mean",2.05%
same,Tlast,"[2]; IV 5 mg/kg, mean",6.00 h
same,plasma concentration,"[2]; PO 30 mg/kg, 0.250 h, individual mice M7-M9, 30 mg/kg",0.0596 µg/mL and 0.065 µg/mL
same,plasma concentration,"[2]; PO 30 mg/kg, 0.500 h, individual mice M7-M9, 30 mg/kg",0.0842 µg/mL and 0.115 µg/mL
same,plasma concentration,"[2]; PO 30 mg/kg, 1.00 h, individual mice M7-M9, 30 mg/kg",0.145 µg/mL and 0.0558 µg/mL and 0.0753 µg/mL
same,plasma concentration,"[2]; PO 30 mg/kg, 2.00 h, individual mice M7-M9, 30 mg/kg",0.0586 µg/mL and 0.0162 µg/mL and 0.0167 µg/mL
same,plasma concentration,"[2]; PO 30 mg/kg, 4.00 h, individual mice M7-M9, 30 mg/kg",0.0127 µg/mL and 0.00598 µg/mL and 0.00378 µg/mL
same,plasma concentration,"[2]; PO 30 mg/kg, 6.00 h, individual mice M7-M9, 30 mg/kg",0.0113 µg/mL and 0.0078 µg/mL
same,plasma concentration,"[2]; PO 30 mg/kg, 24.0 h, individual mice M7-M9",BQL
same,Tlast,"[2]; PO 30 mg/kg, individual mice M7-M9",6.00 h
same,AUC0-last,[2]; [5],0.291 µg·h/mL and 0.129 µg·h/mL and 0.145 µg·h/mL
same,AUC(0-inf),[2]; [5],0.158 µg·h/mL and 0.162 µg·h/mL
same,AUCExtra,[2]; [5],6.68% and 18.1% and 10.7%
same,AUMCExtra,[2]; [5],25.1% and 52.3% and 41.3%
same,Cmax,[2]; [5],0.0842 µg/mL and 0.115 µg/mL
same,MRT0-inf,[2]; [5],2.96 h and 2.14 h
same,MRT0-last,[2]; [5],1.72 h and 1.41 h
same,T1/2,[2]; [5],1.76 h and 1.55 h
same,AUCExtra,"[2]; PO 30 mg/kg, mean",11.9%
same,AUMCExtra,"[2]; PO 30 mg/kg, mean",39.6%
same,Tlast,"[2]; PO 30 mg/kg, mean",6.00 h
same,concentration at 0.25 h,"[2]; 30 mg/kg, IP 30 mg/kg, 0.250 h, individual mice M4-M6",0.242 µg/mL
same,concentration at 0.25 h,"[2]; 30 mg/kg, IP 30 mg/kg, 0.250 h, mean",0.285 µg/mL
same,concentration at 0.5 h,"[2]; 30 mg/kg, IP 30 mg/kg, 0.500 h, individual mice M4-M6",0.381 µg/mL
same,concentration at 0.5 h,"[2]; 30 mg/kg, IP 30 mg/kg, 0.500 h, mean",0.396 µg/mL
same,concentration at 1 h,"[2]; 30 mg/kg, IP 30 mg/kg, 1.00 h, individual mice M4-M6",0.443 µg/mL
same,concentration at 1 h,"[2]; 30 mg/kg, IP 30 mg/kg, 1.00 h, mean",0.524 µg/mL
same,concentration at 2 h,"[2]; 30 mg/kg, IP 30 mg/kg, 2.00 h, individual mice M4-M6",0.367 µg/mL
same,concentration at 2 h,"[2]; 30 mg/kg, IP 30 mg/kg, 2.00 h, mean",0.444 µg/mL
same,concentration at 4 h,"[2]; 30 mg/kg, IP 30 mg/kg, 4.00 h, individual mice M4-M6",0.136 µg/mL
same,concentration at 4 h,"[2]; 30 mg/kg, IP 30 mg/kg, 4.00 h, mean",0.175 µg/mL

# Source: patent US12030896B2, “PIKfyve inhibitors” (Mayo Foundation for Medical Education and Research, priority 2018, dated 2024)
